This test addresses T1, PI3Kγ (purified recombinant p101/p110γ protein) (Homo sapiens, UniProt P48736).
T1 construct: HA; made in house; host or cells: Spodoptera frugiperda Sf9 cells (baculovirus co-infection)
The test is described as follows: PI3Kγ In Vitro Kinase Assay. Format: biochemical. The following applies: final ATP 20 μM, 25 μM PIP2, G protein β1/γ2 subunits, 20 minutes at room temperature. Here is the method: Spodtera frugiperda cells, grown in ESF921 media, were co-infected with baculovirus expressing a glu-tagged p101 and baculovirus expressing an HA-tagged p110γ, at a 3:1 ratio of p101 baculovirus to p110γ baculovirus. Sf9 cells were grown to 1×10^7 total cells/mL in 10 L bioreactors and harvested 48-72 hours post infection. Samples of infected cells were then tested for expression of p101/p110γ PI3 kinase by immunoprecipitation and Western Blot analysis methods (see below).
To purify PI3Kγ, 4 volumes of room temperature hypotonic lysis buffer (1 mM MgCl2, 1 mM DTT, 5 mM EGTA, 1 mM Pefabloc, 0.5 μM aprotinin, 5 μM leupeptin, 2 μM pepstatin, 5 μM E64, pH 8) per gram of cell paste, was poured onto frozen cell pellets with stirring, then lysed in a nitrogen “bomb” at 400 psi (599HC T316, Parr Instrument Co, Moline, Ill.). NaCl was added to 150 mM, and sodium cholate was added to 1% and mixed for another 45 minutes. The lysates were clarified by centrifugation for 25 minutes at 14,000 rpm. The lysates were then loaded over anti-glu-linked Protein-G Sepaharose beads (Covance Research Products, Richmond, Calif.) using 20 mL resin/50 g cell paste. The column was washed with 15 volumes of wash buffer (1 mM DTT, 0.2 mM EGTA, 1 mM Pefabloc, 0.5 μM aprotinin, 5 μM leupeptin, 2 μM pepstatin, 5 μM E64, 150 mM NaCl, 1% sodium cholate, pH 8). PI3Kγ was eluted with 6 column volumes of wash buffer that contain 100 μg/mL of a peptide that competes for binding of the glu tag. The column fractions with the eluted protein (determined by taking OD280 readings) were collected and dialyzed in 0.2 mM EGTA, 1 mM DTT, 1 mM Pefabloc, 5 μM leupeptin, 0.5% sodium cholate, 150 mM NaCl, and 50% glycerol, pH 8. The fractions were stored at −80° C. until further use.
Spodtera frugiperda cells were coinfected with baculovirus expressing a glu-tagged G protein β1 and baculovirus expressing a G protein β2, at a 1:1 ratio of glu-tagged G protein β1 baculovirus to G protein β2 baculovirus. Sf9 cells are grown in 10 L bioreactors and harvested 48-72 hours post infection. Samples of infected cells were tested for G protein β1/β2 expression by Western Blot analysis, as described below. Cell lysates were homogenized and loaded onto a column of glu-tagged beads as in Biological Example 1 and competed off the column with a glu peptide and processed as described in Biological Example 1.
The inhibitory properties of the compounds in Table 1 were assayed in an in vitro PI3K assay. In a 96-well polypropylene plate, each well was spotted with 2 μL of 50 times the desired final concentration of compound in DMSO. Purified recombinant p101/p110γ protein (0.03 μg; ˜2.7 nM) and G protein β1/γ2 subunits (0.09 μg; ˜57.7 nM) for each reaction was combined in the assay buffer (30 mM HEPES, 100 mM NaCl, 1 mM EGTA, and 1 mM DTT). ATP and [γ-^32P-ATP] (0.09 μCi) were added to this mixture so that the final ATP concentration in the reaction was 20 μM. Lipid micelles were formed by sonicating phosphatidylinositol-4,5-diphosphate (PIP2), phosphatidylethanolamine (PE), and Na-cholate in the assay buffer for 10 minutes, adding MgCl2 and incubating on ice for 20 minutes, for final concentrations of 25 μM PIP2, 300 μM PE, 0.02% Na-cholate, and 10 mM MgCl2 in the reaction. The reactions were started by adding equal volumes lipid and enzyme mixture in a total volume of 50 μL, allowed to run for 20 minutes at room temperature, and stopped with 100 μL 75 mM H3PO4. The lipid product was transferred to a glass fiber filter plate and washed with 75 mM H3PO4 several times. The presence of radioactive lipid product (PIP3) was measured by adding Wallac Optiphase mix to each well and counting in a Wallac 1450 Trilux plate reader (PerkinElmer Life Sciences Inc., Boston, Mass. 02118). The IC50 for each compound tested is reported in μM in the Table 2: […]
T1 sequence (P48736 whole entry, species assumed): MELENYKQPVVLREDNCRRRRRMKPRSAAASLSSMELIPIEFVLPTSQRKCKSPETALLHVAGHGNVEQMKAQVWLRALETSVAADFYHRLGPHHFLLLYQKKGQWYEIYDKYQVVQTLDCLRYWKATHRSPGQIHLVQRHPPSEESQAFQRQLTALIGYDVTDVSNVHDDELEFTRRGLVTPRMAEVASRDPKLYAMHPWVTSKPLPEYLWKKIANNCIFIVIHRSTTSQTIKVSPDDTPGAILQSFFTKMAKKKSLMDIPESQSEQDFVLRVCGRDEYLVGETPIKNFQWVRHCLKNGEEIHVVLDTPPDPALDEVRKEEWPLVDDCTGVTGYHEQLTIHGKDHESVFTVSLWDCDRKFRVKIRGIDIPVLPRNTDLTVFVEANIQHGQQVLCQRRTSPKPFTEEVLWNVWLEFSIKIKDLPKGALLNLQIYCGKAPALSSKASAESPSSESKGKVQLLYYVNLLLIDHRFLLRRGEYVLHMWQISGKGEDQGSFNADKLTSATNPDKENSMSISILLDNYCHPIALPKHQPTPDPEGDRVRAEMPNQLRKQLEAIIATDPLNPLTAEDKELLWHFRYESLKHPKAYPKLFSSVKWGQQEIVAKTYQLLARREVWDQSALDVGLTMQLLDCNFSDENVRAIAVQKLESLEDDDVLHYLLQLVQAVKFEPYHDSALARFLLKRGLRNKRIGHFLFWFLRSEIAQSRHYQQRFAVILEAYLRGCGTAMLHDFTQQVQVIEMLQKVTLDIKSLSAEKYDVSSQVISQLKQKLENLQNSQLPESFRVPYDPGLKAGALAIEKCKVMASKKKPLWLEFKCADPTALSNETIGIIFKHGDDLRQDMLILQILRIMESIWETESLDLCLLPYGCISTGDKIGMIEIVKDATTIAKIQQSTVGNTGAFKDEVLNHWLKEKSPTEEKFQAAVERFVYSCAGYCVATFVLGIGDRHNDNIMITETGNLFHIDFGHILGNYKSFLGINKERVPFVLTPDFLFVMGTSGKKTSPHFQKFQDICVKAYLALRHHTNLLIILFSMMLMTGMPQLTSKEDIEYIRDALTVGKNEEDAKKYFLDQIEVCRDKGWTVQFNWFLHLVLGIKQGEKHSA
T1 sequence (Q8WYR1 whole entry partner, species assumed): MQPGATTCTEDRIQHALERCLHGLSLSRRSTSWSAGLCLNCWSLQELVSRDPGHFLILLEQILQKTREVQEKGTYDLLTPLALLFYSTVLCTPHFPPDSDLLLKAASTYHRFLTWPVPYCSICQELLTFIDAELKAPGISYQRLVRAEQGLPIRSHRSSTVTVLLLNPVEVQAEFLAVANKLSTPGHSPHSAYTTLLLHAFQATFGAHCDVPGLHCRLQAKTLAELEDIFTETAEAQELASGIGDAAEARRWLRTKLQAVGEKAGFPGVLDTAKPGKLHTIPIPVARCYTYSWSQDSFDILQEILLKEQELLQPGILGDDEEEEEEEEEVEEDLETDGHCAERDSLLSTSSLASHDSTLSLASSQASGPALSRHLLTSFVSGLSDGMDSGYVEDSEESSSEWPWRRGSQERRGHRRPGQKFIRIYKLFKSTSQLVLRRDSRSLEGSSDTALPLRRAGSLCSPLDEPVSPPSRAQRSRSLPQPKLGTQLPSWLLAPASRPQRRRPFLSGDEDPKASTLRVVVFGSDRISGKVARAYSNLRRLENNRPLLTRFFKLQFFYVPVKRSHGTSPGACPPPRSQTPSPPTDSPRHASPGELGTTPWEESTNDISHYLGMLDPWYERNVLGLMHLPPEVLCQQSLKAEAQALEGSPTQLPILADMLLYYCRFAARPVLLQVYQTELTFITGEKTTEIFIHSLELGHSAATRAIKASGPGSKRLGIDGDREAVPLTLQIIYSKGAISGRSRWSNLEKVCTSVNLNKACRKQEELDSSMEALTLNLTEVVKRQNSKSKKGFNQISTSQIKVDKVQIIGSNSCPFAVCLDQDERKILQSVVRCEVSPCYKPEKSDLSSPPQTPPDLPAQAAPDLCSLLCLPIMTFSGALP
Take `CCOC(=O)c1cc(Nc2nc(C)c3cc(F)c(=O)n(C4CCCC4)c3n2)cn1C(C)c1ccccc1` (stereo not drawn) [Example 13, 4-(8-Cyclopentyl-6-fluoro-4-methyl-7-oxo-7,8-dihydro-pyrido[2,3-d]pyrimidin-2-ylamino)-1-(1-phenyl-ethyl)-1H-pyrrole-2-carboxylic acid ethyl ester]: the IC50 turned out to be 0.16 µM.

Turning to `CCc1nc(Nc2cc(C(=O)OC)n(C)c2)nc2c1ccc(=O)n2C1CCCCCC1` [Example 14, 4-(8-Cycloheptyl-4-ethyl-7-oxo-7,8-dihydro-pyrido[2,3-d]pyrimidin-2-ylamino)-1-methyl-1H-pyrrole-2-carboxylic acid methyl ester], the IC50 came out at 1.44 µM.

Take `Cc1nc(Nc2cc(C(=O)O)n(C)c2)nc2c1ccc(=O)n2C1CCCCCC1` [Example 15, 4-(8-Cycloheptyl-4-methyl-7-oxo-7,8-dihydro-pyrido[2,3-d]pyrimidin-2-ylamino)-1-methyl-1H-pyrrole-2-carboxylic acid]: the IC50 was determined as 0.033 µM.

Regarding `Cc1nc(Nc2cc(C(=O)O)n(C(C)c3ccccc3)c2)nc2c1ccc(=O)n2C` (stereo not drawn) [Example 16, 4-(4,8-Dimethyl-7-oxo-7,8-dihydro-pyrido[2,3-d]pyrimidin-2-ylamino)-1-(1-phenyl-ethyl)-1H-pyrrole-2-carboxylic acid], the IC50 turned out to be 0.148 µM.

With `Cc1nc(Nc2cc(C(=O)O)n(C)c2)nc2c1ccc(=O)n2C1CC1` [Example 18, 4-(8-Cyclopropyl-4-methyl-7-oxo-7,8-dihydro-pyrido[2,3-d]pyrimidin-2-ylamino)-1-methyl-1H-pyrrole-2-carboxylic acid], the IC50 stood at 0.185 µM.

In the case of `CCc1nc(Nc2cc(C(=O)O)n(C)c2)nc2c1ccc(=O)n2C1CCCCCC1` [Example 20, 4-(8-Cycloheptyl-4-ethyl-7-oxo-7,8-dihydro-pyrido[2,3-d]pyrimidin-2-ylamino)-1-methyl-1H-pyrrole-2-carboxylic acid], the 50% inhibitory concentration (IC50) was 1.59 µM.

Turning to `Cc1nc(Nc2cc(C(=O)O)n(C)c2)nc2c1ccc(=O)n2C1CCC1` [Example 21, 4-(8-Cyclobutyl-4-methyl-7-oxo-7,8-dihydro-pyrido[2,3-d]pyrimidin-2-ylamino)-1-methyl-1H-pyrrole-2-carboxylic acid], the concentration for half-maximal inhibition (IC50) was 0.055 µM.

Take `Cc1nc(Nc2cc(C(=O)O)n(C(C)C)c2)nc2c1ccc(=O)n2C1CCCCCC1` [Example 22, 4-(8-Cycloheptyl-4-methyl-7-oxo-7,8-dihydro-pyrido[2,3-d]pyrimidin-2-ylamino)-1-isopropyl-1H-pyrrole-2-carboxylic acid]: the IC50 came out at 0.035 µM.

For `Cc1nc(Nc2ccn(CC(=O)O)c2)nc2c1ccc(=O)n2C1CCCCCC1` [Example 23, [3-(8-Cycloheptyl-4-methyl-7-oxo-7,8-dihydro-pyrido[2,3-d]pyrimidin-2-ylamino)-pyrrol-1-yl]-acetic acid], the IC50 is 1.08 µM.

As for `Cc1nc(Nc2cc(C(=O)O)n(C)c2)nc2c1cc(F)c(=O)n2C1CCOCC1` [Example 25, 4-[6-Fluoro-4-methyl-7-oxo-8-(tetrahydro-pyran-4-yl)-7,8-dihydro-pyrido[2,3-d]pyrimidin-2-ylamino]-1-methyl-1H-pyrrole-2-carboxylic acid], the concentration for half-maximal inhibition (IC50) is 0.04 µM.

Turning to `Cc1nc(Nc2cc(C(=O)O)n(C)c2)nc2c1cc(F)c(=O)n2CC1CCOCC1` [Example 26, 4-[6-Fluoro-4-methyl-7-oxo-8-(tetrahydro-pyran-4-ylmethyl)-7,8-dihydro-pyrido[2,3-d]pyrimidin-2-ylamino]-1-methyl-1H-pyrrole-2-carboxylic acid], the half-maximal inhibitory concentration (IC50) came out at 0.025 µM.

For the compound `COC1CCC(n2c(=O)c(F)cc3c(C)nc(Nc4cc(C(=O)O)n(C)c4)nc32)CC1` (stereo not drawn) [Example 27, 4-[6-Fluoro-8-(4-methoxy-cyclohexyl)-4-methyl-7-oxo-7,8-dihydro-pyrido[2,3-d]pyrimidin-2-ylamino]-1-methyl-1H-pyrrole-2-carboxylic acid], the IC50 stood at 0.019 µM.

Consider `Cc1nc(Nc2cc(C(=O)O)n(C(C)c3ccccc3)c2)nc2c1cc(F)c(=O)n2C1CCCC1` (stereo not drawn) [Example 28, 4-(8-Cyclopentyl-6-fluoro-4-methyl-7-oxo-7,8-dihydro-pyrido[2,3-d]pyrimidin-2-ylamino)-1-(1-phenyl-ethyl)-1H-pyrrole-2-carboxylic acid], for which the IC50 was 0.015 µM.

With `COC(=O)c1cc(Nc2nc(C)c3cc(Cl)c(=O)n(C4CCCC4)c3n2)cn1C` [Example 29, 4-(6-Chloro-8-cyclopentyl-4-methyl-7-oxo-7,8-dihydro-pyrido[2,3-d]pyrimidin-2-ylamino)-1-methyl-1H-pyrrole-2-carboxylic acid methyl ester], the IC50 amounted to 0.006 µM.

For `CCn1c(=O)c(Cl)cc2c(C)nc(Nc3cc(C(=O)OC)n(C)c3)nc21` [Example 30, 4-(6-Chloro-8-ethyl-4-methyl-7-oxo-7,8-dihydro-pyrido[2,3-d]pyrimidin-2-ylamino)-1-methyl-1H-pyrrole-2-carboxylic acid methyl ester], the IC50 is 0.002 µM.

Turning to `COCCn1c(=O)c(Br)cc2c(C)nc(Nc3cc(C(=O)O)n(C)c3)nc21` [Example 32, 4-[6-Bromo-8-(2-methoxy-ethyl)-4-methyl-7-oxo-7,8-dihydro-pyrido[2,3-d]pyrimidin-2-ylamino]-1-methyl-1H-pyrrole-2-carboxylic acid], the IC50 came out at 0.005 µM.

With `COc1ccc(Cn2c(=O)c(Br)cc3c(C)nc(Nc4cc(C(=O)O)n(C)c4)nc32)cc1` [Example 33, 4-[6-Bromo-8-(4-methoxy-benzyl)-4-methyl-7-oxo-7,8-dihydro-pyrido[2,3-d]pyrimidin-2-ylamino]-1-methyl-1H-pyrrole-2-carboxylic acid], the IC50 stood at 0.017 µM.

Regarding `COCCn1c(=O)c(-c2cccc(OCc3ccccc3)c2)cc2c(C)nc(Nc3cc(C(=O)OC)n(C)c3)nc21` [Example 34, 4-[6-(3-Benzyloxy-phenyl)-8-(2-methoxy-ethyl)-4-methyl-7-oxo-7,8-dihydro-pyrido[2,3-d]pyrimidin-2-ylamino]-1-methyl-1H-pyrrole-2-carboxylic acid methyl ester], the IC50 amounted to 0.305 µM.

For the compound `Cc1nc(Nc2cc(C(=O)O)n(C)c2)nc2c1cc(-c1cccc(OCc3ccccc3)c1)c(=O)n2Cc1ccc(F)cc1` [Example 35, 4-[6-(3-Benzyloxy-phenyl)-8-(4-fluoro-benzyl)-4-methyl-7-oxo-7,8-dihydro-pyrido[2,3-d]pyrimidin-2-ylamino]-1-methyl-1H-pyrrole-2-carboxylic acid], the IC50 worked out at 0.34 µM.

In the case of `COc1ccc(Cn2c(=O)c(C)cc3c(C)nc(Nc4cc(C(=O)O)n(C)c4)nc32)cc1` [Example 36, 4-[8-(4-Methoxy-benzyl)-4,6-dimethyl-7-oxo-7,8-dihydro-pyrido[2,3-d]pyrimidin-2-ylamino]-1-methyl-1H-pyrrole-2-carboxylic acid], the half-inhibitory concentration (IC50) stood at 0.047 µM.

Turning to `Cc1nc(Nc2cc(C(=O)O)n(C)c2)nc2c1ccc(=O)n2C1CCCCC1` [Example 38, 4-[8-Cyclohexyl-4-methyl-7-oxo-7,8-dihydro-pyrido[2,3-d]pyrimidin-2-ylamino]-1-methyl-1H-pyrrole-2-carboxylic acid], the IC50 amounted to 0.021 µM.
